In patent US20060111308A1, “Methods and compositions for therapeutic treatment” (priority 2004, published 2006):
Where two headings read alike, the source gives them in different places.

Assays:
[1] = system: adult subjects with chronic pain; assay: Human study of the effects of oral quercetin (Q) and analgesics on sedation, concentration and pain; assay type: in vivo
Procedure: An empiric trial on the effects of oral quercetin (Q) on sedation, concentration, and pain was conducted. Inclusion criteria included ongoing pain of at least 4/10 on the Likert scale, poor tolerance of current analgesic regimen (complaints of sedation, dizziness, inability to focus), and willingness to complete daily diaries.
Approximately 16 adult subjects with chronic pain were screened and 9 subjects were admitted to the trial. Their pain disorders included peripheral neuropathy (2), facial pain (2), cervical radiculopathy (2), lumbar spine disease (3). Their pre-existing medications included short acting opioids (Vicodin TID, Tramadol 50 mg Q4-6), high dose, long acting opioids (OxyContin 240 mg, Methadone 400 mg), Gabapentin (900 mg and 2700 mg), Ativan, Flexeril, and Soma 350 mg. Seven of the subjects were using at least two analgesic medications. Two subjects were using no current medications because of prior histories of sedation and dizziness during opioid trials.
Q (Sigma) 500 mg per gel capsule was compounded and supplied to all subjects by overnight mail. Subjects were instructed to complete daily diaries for 7 days and continue their baseline medications and regular activities. On approximately the 7th day, they were asked to begin twice daily dosing of 2 Q (1000 mg) capsules (total daily dose of Q, 2000 mg). Diaries were completed for 7 days. Individual diaries included rating sleep interference, focus, pain now, and worst pain over the prior 24 hours. Subjects were instructed that concomitant pain medications should not be altered without speaking with the investigator. Subjects were advised that they would be contacted by telephone every day or every other day to assess progress in the trial and any side effects associated with the addition of Q. At the end of the trial, patients were interviewed. They were asked to rate their satisfaction with the study medication (−2−+2) and its ability to modulate the CNS effects of their pain medications.

[2] = in vivo; cited from earlier work
[3] = system: mdr1a (P-gP) knockout (−/−) mouse; conditions: cited from earlier work; for sensitivity to fetal cleft palate: same doses as knockout mice
[4] = after 7 days of co-administration of Q (2000 mg daily, oral) and analgesics, FIG. 16
[5] = scale of −2 to 2, patients on opiate or MSD and Q

SMILES	mean ratings for concentration improved [1, 4]	mean ratings for sleep improved [1, 4]	mean ratings for worst pain improved [1, 4]	mean ratings for pain now decreased ([1]; after 7 days of co-administration of Q (2000 mg daily, oral) and analgesics, all patients taking analgesic medications and Q, FIG. 16)	worst pain in the last 24 hrs (NPRS) ([1]; all patients after taking Q, 1 no pain, 10 worst, FIG. 7)	concentration rating (short term memory, focus, wakefulness) ([1]; all patients after taking Q, 1 perfect concentration, 10 worst, FIG. 6)	pain at the time the patients were called (pain now) ([1]; all patients after taking Q, FIG. 8)	sleep rating ([1]; all patients after taking Q, scale to 10 as worst, FIG. 5)	global assessment on the scale of −2 to 2 ([1]; all patients on opiate or MSD (membrane stabilizing drug) and modulator (Q), FIG. 15)	central withdrawal ([1]; opioid users taking Q)	patients reporting 2 in global assessment [1, 5]	patients reporting −2 in global assessment [1, 5]	pain on the scale from 1-10 (worst pain in last 24 hrs, pain at time of call) ([1]; two patients not on baseline meds, poor tolerance of systemic medications, FIG. 13 and 14)	serum half-life [2]	sensitivity to fetal cleft palate ([3]; heterozygous (+/−) mice)	sensitivity to fetal cleft palate ([3]; homozygous (+/+) mice)	incidence of fetal cleft palate ([3]; mdr1a knockout mice)
O=c1c(O)c(-c2ccc(O)c(O)c2)oc2cc(O)cc(O)c12 [Q, quercetin]	over 60%	more than 25%	more than 25%	more than 70%	overall improvement	overall improvement	overall improvement	overall improvement	overall improvement	noted in 3	three	none	brought the pain down	19 to 25 h			
CC[C@H](C)[C@H]1O[C@]2(C=C[C@@H]1C)C[C@@H]1C[C@@H](C/C=C(\C)[C@@H](O[C@H]3C[C@H](OC)[C@@H](O[C@H]4C[C@H](OC)[C@@H](O)[C@H](C)O4)[C@H](C)O3)[C@@H](C)/C=C/C=C3\CO[C@@H]4[C@H](O)C(C)=C[C@@H](C(=O)O1)[C@]34O)O2 [avermectin]															less sensitive	insensitive	100%
